Molecular target: T1, IL-17A/A (Homo sapiens, UniProt Q16552)
T1 sequence (Q16552 24-155): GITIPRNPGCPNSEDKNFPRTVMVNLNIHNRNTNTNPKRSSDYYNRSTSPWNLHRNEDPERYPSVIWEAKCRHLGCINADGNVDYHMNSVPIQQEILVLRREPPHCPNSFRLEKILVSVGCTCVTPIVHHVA
Assay: IL-17A/A HEK-Blue Cell Assay
Assay type: cell-based
Conditions: HEK-Blue IL-17 reporter cells, IL-17A/A stimulation, 20 hours, SEAP readout; read-out: IL17 AA HEK-5 pIC50 (converted)
Procedure: The HEK-Blue IL-17 reporter cell line (Fisher #NC1408637) was used for cell-based IL-17A/A inhibition assays. Cells were grown and prepared for assays according to the manufacturer's instructions. This cell line consists of HEK 293 cells that were designed to expressed IL-17R^A, IL-17R^C, and the ActI adapter molecule, the combination of which, when stimulated by IL-17A/A activates a NFκB promoter and drives expression of a recombinant Secreted Alkaline Phosphatase (SEAP) protein. Media from the cells is then added to a development reagent (Quanti-Blue Substrate, Fisher #NC9711613), and read at A630.
Compounds were titrated in DMSO, with a top final compound concentration of 10 uM and added to the cells immediately before adding IL-17A/A (Genscript #Z03228). The cells, compound, and IL-17A/A were then incubated for 20 hours before media was removed for SEAP analysis. The resulting inhibition curve was then analyzed using a Dotmatics screening protocol, and IC50 values were determined using a 4-parameter nonlinear fit. DMSO was added to a universal final concentration of 0.1% to optimize background. IL-17A/A inhibition data is provided in Table 1 for selected compounds.

SMILES	IC50 [µM]
CO[C@@H](C)C(=O)N[C@@H](C(=O)N1C[C@H]2CC[C@@H](C1)N2C)[C@@H](C)c1ccc(NC(=O)[C@@H](NC(=O)c2ccnn2C(C)C)C(C2CC2)C2CC2)c(F)c1 [Compound 261]	< 0.01
CCC(=O)N[C@@H](C(=O)N1CCN(C)CC1)[C@@H](C)c1ccc(NC(=O)[C@H](NC(=O)c2ccnn2CC)C(C2CC2)C2CC2)c(F)c1 [Compound 201]	0.01 to 0.1
CCC(=O)N[C@@H](C(=O)N1CC2(CN(C)C2)C1)[C@@H](C)c1ccc(NC(=O)[C@@H](NC(=O)c2ccnn2CC)C(C2CC2)C2CC2)c(F)c1 [Compound 238]	0.1 to 10
CCC(=O)N[C@@H](C(=O)N1C[C@@H]2C[C@H]1CN2C)[C@@H](C)c1ccc(NC(=O)[C@@H](NC(=O)c2ccnn2CC)C(C2CC2)C2CC2)c(F)c1 [Compound 235]	0.01 to 0.1
CCC(=O)N[C@@H](C(=O)N1C[C@H]2C[C@@H](C1)N2C)[C@@H](C)c1ccc(NC(=O)[C@@H](NC(=O)c2ccnn2CC)C(C2CC2)C2CC2)c(F)c1 [Compound 241]	0.01 to 0.1
CCC(=O)N[C@@H](C(=O)N1CC[C@@H](N(C)C)C1)[C@@H](C)c1ccc(NC(=O)[C@@H](NC(=O)c2ccnn2CC)C(C2CC2)C2CC2)c(F)c1 [Compound 242]	0.01 to 0.1
CCC(=O)N[C@@H](C(=O)N1CCN(C)CC1)[C@@H](C)c1ccc(NC(=O)[C@@H](NC(=O)c2nonc2CC)C(C2CC2)C2CC2)c(F)c1 [Compound 204]	< 0.01
CCC(=O)N[C@@H](C(=O)N1CCN(C)CC1)[C@@H](C)c1ccc(NC(=O)[C@@H](NC(=O)c2ccnn2C2CC2(F)F)C(C2CC2)C2CC2)c(F)c1 (single isomer, unassigned) [Compound 233]	0.01 to 0.1
CCC(=O)N[C@@H](C(=O)N1CCN(C)C[C@@H]1C)[C@@H](C)c1ccc(NC(=O)[C@@H](NC(=O)c2ccnn2CC)C(C2CC2)C2CC2)c(F)c1 [Compound 208]	< 0.01
CCC(=O)N[C@@H](C(=O)N1C[C@H]2CC[C@@H](C1)N2C)[C@@H](C)c1ccc(NC(=O)[C@@H](NC(=O)c2ccnn2CC)C(C2CC2)C2CC2)c(F)c1 [Compound 239]	< 0.01

Now from value to compound:

IC50 [µM]	SMILES
< 0.01	CCn1nccc1C(=O)N[C@H](C(=O)Nc1ccc([C@H](C)[C@@H](NC(=O)[C@H](C)OC)C(=O)N2CC[C@H](N(C)C)C2)cc1F)C(C1CC1)C1CC1 [Compound 255]
< 0.01	CCC(=O)N[C@@H](C(=O)N1CCN(C)[C@H](C)C1)[C@@H](C)c1ccc(NC(=O)[C@@H](NC(=O)c2ccnn2C(C)C)C(C2CC2)C2CC2)c(F)c1 [Compound 258]
0.01 to 0.1	CO[C@@H](C)C(=O)N[C@@H](C(=O)N1CCN(C)CC1)[C@@H](C)c1ccc(NC(=O)[C@@H](NC(=O)C2(F)CC2)C(C2CC2)C2CC2)c(F)c1 [Compound 272]
< 0.01	CCC(=O)N[C@@H](C(=O)N1C[C@H]2CC[C@@H](C1)N2C)[C@@H](C)c1ccc(NC(=O)[C@@H](NC(=O)c2ccnn2C(C)C)C(C2CC2)C2CC2)c(F)c1 [Compound 264]
< 0.01	CCC(=O)N[C@@H](C(=O)N1CC[C@H](N(C)C)C1)[C@@H](C)c1ccc(NC(=O)[C@@H](NC(=O)c2ccnn2C(C)C)C(C2CC2)C2CC2)c(F)c1 [Compound 265]
0.01 to 0.1	CO[C@@H](C)C(=O)N[C@@H](C(=O)N1C[C@H]2C[C@@H]1CN2C)[C@@H](C)c1ccc(NC(=O)[C@@H](NC(=O)c2ccnn2C(C)C)C(C2CC2)C2CC2)c(F)c1 [Compound 263]
< 0.01	CO[C@@H](C)C(=O)N[C@@H](C(=O)N1CCN(C)CC1)[C@@H](C)c1ccc(NC(=O)[C@@H](NC(=O)c2ccnn2C(C)C)C(C2CC2)C2CC2)c(F)c1 [Compound 259]
< 0.01	CCC(=O)N[C@@H](C(=O)N1CCC(C)(O)CC1)[C@@H](C)c1ccc(NC(=O)[C@@H](NC(=O)c2ccnn2CCF)C(C2CC2)C2CC2)c(F)c1 [Compound 250]

Same assay, conditions: IL17 AA HEK-5 pIC50, HEK-Blue IL-17 reporter cells, IL-17A/A stimulation, 20 hours, SEAP readout

SMILES	IC50 [µM]
CCn1nccc1C(=O)N[C@H](C(=O)Nc1ccc([C@H](C)[C@@H](NC(=O)CF)C(=O)N2CCN(C)[C@H](C)C2)cc1F)C(C1CC1)C1CC1 [Compound 228]	0.01 to 0.1

Source: patent US20250177383A1, “DI-CYCLOPROPYL BASED IL-17A MODULATORS AND USES THEREOF” (DICE ALPHA, INC., priority 2022, published 2025)
